We go through 6 compounds from US8557741B2, “3-aminocarbonyl-substituted benzoylcyclohexanediones and their use as herbicides” (Bayer CropScience AG, priority 2010, dated 2013).

Common to all, as to type: in vivo
Assay [1] relates to Veronica persica. In words: Pre-emergence herbicidal action against harmful plants. The following applies: 504 h, read-out: Herbicidal action against VERPE; for pest or weed control at 320 g/ha: dosage 320 g/ha, visual assessment after 3 weeks (Table A); for pest or weed control at 80 g/ha: dosage 80 g/ha, visual assessment after 3 weeks (Table B). From the text: (§1) The abbreviations used in the tables below denote: • ABUTH Abutilon theophrasti • AMARE Amaranthus retroflexus • ECHCG Echinochloa crus galli • PHBPU Phartoitis purpureum • STEME Stellaria media • ALOMY Alopecurus myosuroides • AVEFA Avena fatua • MATIN Matricaria inodora • POLCO Fallopia convolvulus • VERPE Veronica persica 1. Pre-emergence Herbicidal Action Against Harmful Plants Seeds of monocotyledonous and dicotyledonous weed plants and crop plants are placed in wood-fibre pots in sandy loam and covered with soil. The compounds according to the invention and the compounds known from the prior art, formulated in the form of wettable powders (WP) or as emulsion concentrates (EC), are then applied as aqueous suspension or emulsion at a water application rate of 600 to 800 I/ha (converted) with the addition of 0.2% of wetting agent to the surface of the covering soil. After the treatment, the pots are placed in a greenhouse and kept under good growth conditions for the test plants. The visual assessment of the damage to the test plants is carried out after a trial period of 3 weeks by comparison with untreated controls (herbicidal activity in percent (%): 100% activity=the plants have died, 0% activity=like control plants, —=not tested). The results of comparative table A show the compounds according to the invention have a higher herbicidal activity than the compounds of the greatest structural similarity known from the closest prior art.

In assay [2] the test system is Matricaria inodora. The description is as above. As to conditions: Tripleurospermum inodorum, 504 h, dosage 320 g/ha, visual assessment after 3 weeks (Table A), read-out: Herbicidal action against MATIN.
From the text: as §1

In assay [3] the test system is Amaranthus retroflexus. Described as above. The following applies: 504 h, read-out: Herbicidal action against AMARE; for pest or weed control at 320 g/ha: dosage 320 g/ha, visual assessment after 3 weeks (Table A); for pest or weed control at 80 g/ha: dosage 80 g/ha, visual assessment after 3 weeks (Table B).
From the text: as §1

Assay [4] deals with Abutilon theophrasti. The assay is described as above. The following applies: Abutilon theophrasti, 504 h, read-out: Herbicidal action against ABUTH; for pest or weed control at 320 g/ha: dosage 320 g/ha, visual assessment after 3 weeks (Table A); for pest or weed control at 80 g/ha: dosage 80 g/ha, visual assessment after 3 weeks (Table B).
From the text: as §1

Assay [5] concerns Echinochloa crus galli. Described as above. The following applies: Echinochloa, 504 h, dosage 320 g/ha, visual assessment after 3 weeks (Table A), read-out: Herbicidal action against ECHCG.
From the text: as §1

The test system of another assay is Alopecurus myosuroides. The description is as above. As to conditions: dosage 320 g/ha, visual assessment after 3 weeks (Table A).
From the text: as §1

The subject of assay [6] is Stellaria media. The description is as above. The following applies: 504 h, dosage 320 g/ha, visual assessment after 3 weeks (Table A), read-out: Herbicidal action against STEME.
From the text: as §1

The subject of assay [7] is Veronica persica. Briefly: Post-emergence herbicidal action against harmful plants. The following applies: 504 h, read-out: Herbicidal action against VERPE; for pest or weed control at 80 g/ha: dosage 80 g/ha, visual rating after about 3 weeks (Table D); for pest or weed control at 20 g/ha: dosage 20 g/ha, visual rating after about 3 weeks (Table F). From the text:
(§2) The abbreviations used in the tables below denote: • ABUTH Abutilon theophrasti • AMARE Amaranthus retroflexus • ECHCG Echinochloa crus galli • PHBPU Phartoitis purpureum • STEME Stellaria media • ALOMY Alopecurus myosuroides • AVEFA Avena fatua • MATIN Matricaria inodora • POLCO Fallopia convolvulus • VERPE Veronica persica 1. Pre-emergence Herbicidal Action Against Harmful Plants Seeds of monocotyledonous and dicotyledonous weed and crop plants are placed in sandy loam in wood-fibre pots, covered with soil and cultivated in a greenhouse under good growth conditions. 2 to 3 weeks after sowing, the test plants are treated at the one-leaf stage. The compounds according to the invention, formulated in the form of wettable powders (WP) or as emulsion concentrates (EC), are then sprayed as aqueous suspension or emulsion at a water application rate of 600 to 800 I/ha (converted) with the addition of 0.2% of wetting agent onto the green parts of the plants. After the test plants have been kept in the greenhouse under optimum growth conditions for about 3 weeks, the activity of the preparations is rated visually in comparison to untreated controls (herbicidal activity in percent (%): 100% activity=the plants have died, 0% activity=control plants, —=not tested).

For assay [8], the system named is Amaranthus retroflexus. Described as above. The following applies: 504 h, dosage 80 g/ha, visual rating after about 3 weeks (Table D), read-out: Herbicidal action against AMARE.
From the text: as §2

The subject of assay [9] is Abutilon theophrasti. The description is as above. The following applies: 504 h, read-out: Herbicidal action against ABUTH; for pest or weed control at 80 g/ha: dosage 80 g/ha, visual rating after about 3 weeks (Table D); for pest or weed control at 20 g/ha: dosage 20 g/ha, visual rating after about 3 weeks (Table F).
From the text: as §2

Assay [10] deals with Echinochloa crus galli. The description is as above. The following applies: 504 h, read-out: Herbicidal action against ECHCG; for pest or weed control at 80 g/ha: dosage 80 g/ha, visual rating after about 3 weeks (Table D); for pest or weed control at 20 g/ha: dosage 20 g/ha, visual rating after about 3 weeks (Table F).
From the text: as §2

The subject of a further assay is Fallopia convolvulus. Described as above. As to conditions: 504 h, dosage 80 g/ha, visual rating after about 3 weeks (Table D), read-out: Herbicidal action against POLCO.
From the text: as §2

Assay [11] concerns Phartoitis purpureum. The assay is described as above. As to conditions: 504 h; for pest or weed control at 80 g/ha: dosage 80 g/ha, visual rating after about 3 weeks (Table D), read-out: Herbicidal action against PHBPU; for pest or weed control at 20 g/ha: dosage 20 g/ha, visual rating after about 3 weeks (Table F), read-out: Herbicidal action against PHPBU.
From the text: as §2

Assay [12] concerns Stellaria media. The assay is described as above. As to conditions: 504 h, read-out: Herbicidal action against STEME; for pest or weed control at 80 g/ha: dosage 80 g/ha, visual rating after about 3 weeks (Table D); for pest or weed control at 20 g/ha: dosage 20 g/ha, visual rating after about 3 weeks (Table F).
From the text: as §2

The test system of a further assay is Avena fatua. In words: Pre-emergence herbicidal action against harmful plants. The following applies: dosage 320 g/ha, visual assessment after 3 weeks (Table A).
From the text: as §1

Assay [13] concerns Matricaria inodora. In words: Post-emergence herbicidal action against harmful plants. As to conditions: Tripleurospermum inodorum, 504 h, dosage 80 g/ha, visual rating after about 3 weeks (Table D), read-out: Herbicidal action against MATIN.
From the text: as §2

For a further assay, the system named is VIOTR. The description is as above. As to conditions: dosage 20 g/ha, visual rating after about 3 weeks (Table F). How it is done:
as §2, with “Seeds” for “The abbreviations used in the tables below denote: • ABUTH Abutilon theophrasti • AMARE Amaranthus retroflexus • ECHCG Echinochloa crus galli • PHBPU Phartoitis purpureum • STEME Stellaria media • ALOMY Alopecurus myosuroides • AVEFA Avena fatua • MATIN Matricaria inodora • POLCO Fallopia convolvulus • VERPE Veronica persica 1. Pre-emergence Herbicidal Action Against Harmful Plants Seeds”

The test system of assay [14] is Phartoitis purpureum. In words: Pre-emergence herbicidal action against harmful plants. The following applies: dosage 320 g/ha, visual assessment after 3 weeks (Table A).
From the text: as §1

Structures are written as SMILES.

On to `CCS(=O)(=O)c1ccc(C(=O)C2=C(O)CCCC2=O)c(C(F)(F)F)c1OCC(=O)N(C)C` [Compound E5], for which the pest or weed control at 320 g/ha in the assay with Veronica persica [1] is 100%; with Matricaria inodora [2], 100%; with Amaranthus retroflexus [3], 100%; in the assay on Abutilon theophrasti [4] it was 100%; in the assay with Echinochloa crus galli [5] it was 100%; in the assay on Stellaria media [6], 90%. Moreover, the “Herbicidal action against ALOMY” value in the assay with Alopecurus myosuroides is reported as 100%. Moreover, the pest or weed control at 80 g/ha in the assay on Veronica persica [7] was 100%; in the assay on Amaranthus retroflexus [8], 80%; with Abutilon theophrasti [9] it was 90%; in the assay on Echinochloa crus galli [10], 90%; in the assay with Fallopia convolvulus it was 80%; in the assay with Phartoitis purpureum [11], 90%. Besides, the pest or weed control at 80 g/ha in the assay with Stellaria media [12] is 90%.
In the case of `CCN(C)C(=O)COc1c(S(C)(=O)=O)ccc(C(=O)C2=C(O)CCCC2=O)c1C(F)(F)F` [Compound E7], the pest or weed control at 320 g/ha with Veronica persica [1], with Matricaria inodora [2], in the assay on Amaranthus retroflexus [3], in the assay on Abutilon theophrasti [4], with Echinochloa crus galli [5] and in the assay on Stellaria media [6] was 100% in each case. Also, the “Herbicidal action against AVEFA” value in the assay on Avena fatua is given as 80%. Further, the pest or weed control at 80 g/ha was 100% with Veronica persica [7]; 100% in the assay on Matricaria inodora [13]; 100% in the assay on Amaranthus retroflexus [8]; 90% in the assay on Abutilon theophrasti [9]; 90% in the assay on Echinochloa crus galli [10]; 80% with Fallopia convolvulus. Also, the pest or weed control at 80 g/ha with Phartoitis purpureum [11] and in the assay on Stellaria media [12] was 100% in each case.
On to `CCS(=O)(=O)c1ccc(C(=O)C2=C(SCC(=O)OC)CCCC2=O)c(C(F)(F)F)c1OCC(=O)N(C)C` [Compound E9], for which the pest or weed control at 80 g/ha in the assay on Veronica persica [1], in the assay on Amaranthus retroflexus [3] and in the assay on Abutilon theophrasti [4] was 90% throughout. For the same compound, the “Herbicidal action against VIOTR” value in the assay on VIOTR was determined as 100%. Moreover, the pest or weed control at 20 g/ha in the assay with Veronica persica [7] is 100%; in the assay with Abutilon theophrasti [9], 100%; in the assay with Echinochloa crus galli [10], 90%; in the assay with Phartoitis purpureum [11], 80%; in the assay with Stellaria media [12] it was 90%.
As for `CCN(CC)C(=O)COc1c(S(=O)(=O)CC)ccc(C(=O)C2=C(O)CCCC2=O)c1Cl` [Compound S3, reference compound], the pest or weed control at 320 g/ha in the assay with Veronica persica [1] was 100%; with Matricaria inodora [2] it was 80%; in the assay on Amaranthus retroflexus [3] it was 80%; in the assay with Abutilon theophrasti [4], 70%; with Echinochloa crus galli [5] it was 50%; in the assay with Stellaria media [6], 50%. Further, in the assay on Phartoitis purpureum [14], the “Herbicidal action against PHBPU” value amounted to 40%. Further, the pest or weed control at 80 g/ha in the assay with Veronica persica [7] was 90%; in the assay with Matricaria inodora [13], 70%; with Amaranthus retroflexus [8], 100%; with Abutilon theophrasti [9], 90%; in the assay on Echinochloa crus galli [10], 0%; in the assay with Fallopia convolvulus, 40%. For the same compound, the pest or weed control at 80 g/ha with Phartoitis purpureum [11] was 60%; with Stellaria media [12], 90%.
As for `CCS(=O)(=O)c1ccc(C(=O)C2=C(O)CCCC2=O)c(Cl)c1OCC(=O)N(C)C` [Compound S5, reference compound], the pest or weed control at 320 g/ha was 100% in the assay with Veronica persica [1]; 90% in the assay with Matricaria inodora [2]; 100% with Amaranthus retroflexus [3]; 90% with Abutilon theophrasti [4]; 100% with Echinochloa crus galli [5]; 90% in the assay on Stellaria media [6]. Further, the “Herbicidal action against ALOMY” value in the assay on Alopecurus myosuroides came out at 0%. Moreover, the pest or weed control at 80 g/ha is 100% in the assay on Veronica persica [7]; 80% in the assay with Amaranthus retroflexus [8]; 90% in the assay on Abutilon theophrasti [9]; 40% in the assay with Echinochloa crus galli [10]; 20% in the assay with Fallopia convolvulus; 60% in the assay with Phartoitis purpureum [11]. In addition, the pest or weed control at 80 g/ha in the assay with Stellaria media [12] turned out to be 80%.
For `CCS(=O)(=O)c1ccc(C(=O)C2=C(SCC(=O)OC)CCCC2=O)c(Cl)c1OCC(=O)N(C)C` [Compound S9, reference compound], the figures for the pest or weed control at 80 g/ha in the assay with Veronica persica [1], with Amaranthus retroflexus [3] and with Abutilon theophrasti [4] were 20%, 40% and 20%, respectively. Moreover, the “Herbicidal action against VIOTR” value in the assay on VIOTR amounted to 60%. In addition, the pest or weed control at 20 g/ha was found to be 80% in the assay with Veronica persica [7]; 80% with Abutilon theophrasti [9]; 90% with Echinochloa crus galli [10]; 60% in the assay on Phartoitis purpureum [11]; 70% with Stellaria media [12].
